The CheMixHub ionic liquid set
± gives the uncertainty stated by the source.

Test: xn = mol fraction of the nth substance listed

NC(N)=NCCC[C@H](N)C(=O)O + CCCC[n+]1ccn(C)c1.[Br-] + O
viscosity [mPa·s], 101.3 kPa
Settings | 293.15 K | 298.15 K | 303.15 K | 308.15 K | 313.15 K
x1 = 0.000359, x2 = 0 | 1.013 ± 0.013 | 0.904 ± 0.012 | 0.839 ± 0.011 | 0.771 ± 0.01 | 0.691 ± 0.009
x1 = 0.0003655, x2 = 0.00072 | 1.037 ± 0.014 | 0.922 ± 0.012 | 0.833 ± 0.011 | 0.754 ± 0.01 | 0.688 ± 0.009
x1 = 0.0003655, x2 = 0.001439 | 1.058 ± 0.014 | 0.914 ± 0.012 | 0.816 ± 0.011 | 0.744 ± 0.01 | 0.675 ± 0.009
x1 = 0.0007208, x2 = 0 | 1.025 ± 0.014 | 0.915 ± 0.012 | 0.851 ± 0.011 | 0.783 ± 0.01 | 0.703 ± 0.009
x1 = 0.0007266, x2 = 0.0007198 | 1.048 ± 0.014 | 0.933 ± 0.012 | 0.844 ± 0.011 | 0.766 ± 0.01 | 0.7 ± 0.009
x1 = 0.0007324, x2 = 0.001438 | 1.069 ± 0.014 | 0.925 ± 0.012 | 0.827 ± 0.011 | 0.756 ± 0.01 | 0.686 ± 0.009
x1 = 0.001079, x2 = 0 | 1.036 ± 0.014 | 0.927 ± 0.012 | 0.863 ± 0.011 | 0.795 ± 0.011 | 0.715 ± 0.009
x1 = 0.001088, x2 = 0.0007195 | 1.059 ± 0.014 | 0.944 ± 0.012 | 0.855 ± 0.011 | 0.777 ± 0.01 | 0.712 ± 0.009
x1 = 0.001098, x2 = 0.001438 | 1.08 ± 0.014 | 0.936 ± 0.012 | 0.838 ± 0.011 | 0.767 ± 0.01 | 0.698 ± 0.009
x1 = 0.001446, x2 = 0 | 1.047 ± 0.014 | 0.938 ± 0.012 | 0.874 ± 0.012 | 0.806 ± 0.011 | 0.726 ± 0.01
x1 = 0.001452, x2 = 0.0007192 | 1.07 ± 0.014 | 0.955 ± 0.013 | 0.866 ± 0.011 | 0.788 ± 0.01 | 0.723 ± 0.01
x1 = 0.001462, x2 = 0.001437 | 1.091 ± 0.014 | 0.947 ± 0.013 | 0.849 ± 0.011 | 0.778 ± 0.01 | 0.709 ± 0.009
x1 = 0.001811, x2 = 0.000719 | 1.081 ± 0.014 | 0.966 ± 0.013 | 0.877 ± 0.012 | 0.799 ± 0.011 | 0.734 ± 0.01
x1 = 0.00182, x2 = 0 | 1.059 ± 0.014 | 0.949 ± 0.013 | 0.885 ± 0.012 | 0.817 ± 0.011 | 0.737 ± 0.01
x1 = 0.001827, x2 = 0.001437 | 1.102 ± 0.015 | 0.958 ± 0.013 | 0.86 ± 0.011 | 0.789 ± 0.01 | 0.72 ± 0.01
x1 = 0.002121, x2 = 0.001436 | 1.114 ± 0.015 | 0.97 ± 0.013 | 0.872 ± 0.012 | 0.801 ± 0.011 | 0.732 ± 0.01
x1 = 0.002158, x2 = 0 | 1.073 ± 0.014 | 0.961 ± 0.013 | 0.897 ± 0.012 | 0.829 ± 0.011 | 0.749 ± 0.01
x1 = 0.002174, x2 = 0.0007187 | 1.093 ± 0.014 | 0.978 ± 0.013 | 0.889 ± 0.012 | 0.811 ± 0.011 | 0.746 ± 0.01
x1 = 0.002516, x2 = 0 | 1.087 ± 0.014 | 0.975 ± 0.013 | 0.911 ± 0.012 | 0.843 ± 0.011 | 0.763 ± 0.01
x1 = 0.002537, x2 = 0.0007185 | 1.106 ± 0.015 | 0.991 ± 0.013 | 0.902 ± 0.012 | 0.824 ± 0.011 | 0.759 ± 0.01
x1 = 0.002557, x2 = 0.001436 | 1.127 ± 0.015 | 0.983 ± 0.013 | 0.885 ± 0.012 | 0.814 ± 0.011 | 0.745 ± 0.01

[Cl][Zn][Cl] + CCCC[n+]1ccn(C)c1.[Cl-]
303.15 K, 100 kPa
Settings | electrical conductivity [S/m]
x2 = 0.333 | 0.00188 ± 8e-05
x2 = 0.5 | 0.0237 ± 0.0009
x2 = 0.666 | 0.0171 ± 0.0007

CC[n+]1ccn(C)c1.O=S(=O)([O-])C(F)(F)C(F)F + CCCC[n+]1ccc(C)cc1.O=S(=O)([N-]S(=O)(=O)C(F)(F)F)C(F)(F)F
100 kPa
Settings | viscosity [mPa·s]
293.15 K, x2 = 0.2211 | 111.1 ± 3.9
293.15 K, x2 = 0.3324 | 106.5 ± 3.6
293.15 K, x2 = 0.4432 | 101 ± 3.3
293.15 K, x2 = 0.774 | 84.5 ± 2.5
303.15 K, x2 = 0.3324 | 66.1 ± 1.7
303.15 K, x2 = 0.9517 | 47.6 ± 1.2
313.15 K, x2 = 0.0504 | 47.7 ± 1.2
313.15 K, x2 = 0.112 | 47 ± 1.2
313.15 K, x2 = 0.4432 | 41.7 ± 1.1
313.15 K, x2 = 0.6631 | 37.5 ± 1
323.15 K, x2 = 0.4432 | 29.2 ± 0.7
333.15 K, x2 = 0.4432 | 21.5 ± 0.6
333.15 K, x2 = 0.5529 | 20.3 ± 0.5
333.15 K, x2 = 0.6631 | 19.5 ± 0.5
343.15 K, x2 = 0.0504 | 18.2 ± 0.5
353.15 K, x2 = 0.774 | 10.9 ± 0.3
353.15 K, x2 = 0.8828 | 10.3 ± 0.3
